According to PubChem BioAssay (NCI):
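Briefly, cells in 96-well plates were exposed to five compound concentrations for 48 h, and endpoints were estimated by linear interpolation. TGI marks complete inhibition of growth.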

Tests used:
Assay in all cases: inhibition of tumour cell growth, NCI panel, 48 h
[1] = test system: A498 renal
[2] = test system: A549 NSCLC
[3] = test system: BT-549 breast
[4] = test system: CCRF-CEM leukemia
[5] = test system: NCI-H226 lung
[6] = test system: SK-MEL-2 melanoma
[7] = test system: SN12C renal
[8] = test system: SNB-19 CNS
[9] = test system: U251 CNS
[10] = test system: UACC-62 melanoma

SMILES | TGI [1] [µM] | TGI [2] [µM] | TGI [3] [µM] | TGI [4] [µM] | TGI [5] [µM] | TGI [6] [µM] | TGI [7] [µM] | TGI [8] [µM] | TGI [9] [µM] | TGI [10] [µM]
O=P(O)(O)c1ccccc1Oc1ccccc1 | > 100 | > 100 | > 100 | > 100 | > 100 | > 100 | > 100 | > 100 | > 100 | > 100
CC(C)C(CC(=O)OCC(CO)OC(=O)CC(C(C)C)C(C)C)C(C)C (stereo not given) | 29.8 | 24 | 33.1 | 31.7 | 30.1 | 35.2 | 28.3 | 28.4 | 30.9 | 32.8
C1=C2C3=[N+](CCCCC3)CC2Cc2ccsc21 (stereo not given) | > 100 | > 100 | > 100 | > 100 | > 100 | > 100 | > 100 | > 100 | > 100 | > 100
COC(=O)C1C(C(=O)OC)C2(OC(c3ccc(Cl)cc3)=CC2=O)C12OC(c1ccc(Cl)cc1)=CC2=O (stereo not given) | 76.1 | > 100 | 42.5 | 8.23 | > 100 | 55.3 | 52.8 | > 100 | > 100 | 32.8
CCn1c2ccc(C(=O)CCCN3CCCCC3)cc2c2cc(C(=O)CCCN3CCCCC3)ccc21 | 10.3 | 3.86 | 35 | 9.83 | 27.2 | 3.52 | 20 | 10.6 | 4.73 | 38.8
